Laboratory results taken from patent publication US20250212880A1, “COMPOSITION FOR COATING PLANT SEED” (priority 2022, published 2025).

Experiments:
Assay type in all cases: in vivo
[1] = tested on: Zea mays; assay: Cultivation of Zea mays from coated seeds under non-stress conditions; conditions: dent corn, 3 weeks (21 days) after seeding, seed coating Trp 0.045-0.45 g and/or allantoin 50 or 500 g per tonne of seeds
Experimental: Dent corn seeds (100 g; the variety: Snow-dent “Otoha”) were coated with 800 μL of a coating solution comprising tryptophan, allantoin, polyvinyl alcohol, and a coloring dye in water using a coater (SATEC). Coating was performed using either or both of tryptophan in an amount of 0 g, 0.045 g, 0.225 g, or 0.45 g and allantoin in an amount of 0 g, 50 g, or 500 g per tonne of seeds (MT).
Culture soil was filled into 12-cm vinyl pots, and the coated dent corn seeds were seeded at 4 grains/pot. After germination, a differently grown strain was thinned to retain 3 strains in a pot. Cultivation was performed in a glass greenhouse, and inspection was performed 21 days after seeding. The height, the fresh weight of the aboveground part, and the dry weight of the underground part were measured, and the density (the fresh weight of the aboveground part/the height) was determined. […] The test was repeated 6 times, and the average was determined.
The fresh weight of the aboveground part, the density, and the dry weight of the underground part measured for groups each treated with different amounts of tryptophan and allantoin were indicated as the rates of changes (%), relative to the fresh weight of the aboveground part, the density, and the dry weight of the underground part of plants in the test group (control group) treated with a coating solution not comprising tryptophan or allantoin. […]

[2] = tested on: wheat; assay: Cultivation of wheat from coated seeds under non-stress conditions; conditions: 2 weeks after seeding, seed coating Trp 0.045-9 g and/or allantoin 50 g per tonne of seeds
Experimental: Wheat seeds (100 g, the variety: Yumechikara) were coated with 800 μL of a coating solution comprising tryptophan, allantoin, polyvinyl alcohol, and a coloring dye in water using a coater (SATEC). Coating was performed using either or both of tryptophan in an amount of 0 g, 0.045 g, 0.45 g, 4.5 g, or 9 g and allantoin in an amount of 0 g or 50 g per tonne of seeds.
Culture soil was filled into 12-cm vinyl pots, and the coated wheat seeds were seeded at 4 grains/pot. After germination, a differently grown strain was thinned to retain 3 strains in a pot. Cultivation was performed in a glass greenhouse, and inspection was performed 2 weeks after seeding. The test was repeated 6 times, and the average was determined.
(§1) The measured fresh weight of the aboveground part of plants in groups each treated with different amounts of tryptophan and allantoin was indicated as the rate of change (%), relative to the fresh weight of the aboveground part of plants in the test group (control group) treated with a coating solution not comprising tryptophan or allantoin.

[3] = tested on: wheat; assay: Cultivation of wheat from coated seeds under salt stress conditions; conditions: salt stress (NaCl 4.0 g/L soil), 2 weeks after seeding, seed coating Trp 0.045-9 g and/or allantoin 50 g per tonne of seeds
Experimental: Wheat seeds (100 g; the variety: Yumechikara) were coated with 800 μL of a coating solution comprising tryptophan, allantoin, polyvinyl alcohol, and a coloring dye in water using a coater (SATEC). Coating was performed using either or both of tryptophan in an amount of 0 g, 0.045 g, 0.45 g, 4.5 g, or 9 g and allantoin in an amount of 0 g or 50 g per tonne of seeds.
Culture soil comprising sodium chloride at 4.0 g/L of the soil was filled into 7.5-cm pots, and the coated wheat seeds were seeded at 1 grain/pot. Cultivation was performed in a glass greenhouse, and inspection was performed 16 days after seeding. The height and the fresh weight of the aboveground part were measured, and the density (the fresh weight of the aboveground part/the height) was determined. The test was repeated 9 times, and the average was determined.
The density of the test groups treated with different amounts of tryptophan and allantoin was indicated as the rate of change (%), relative to the density of the test group (control group) treated with a coating solution not comprising tryptophan or allantoin.

[4] = tested on: soybean; assay: Cultivation of soybean from coated seeds under non-stress conditions; conditions: 3 weeks after seeding, seed coating Trp 0.225-5 g and/or allantoin 25 g per tonne of seeds
Experimental: Soybean seeds (100 g; the variety: Fukuyutaka) were coated with 800 μL of a coating solution comprising tryptophan, allantoin, polyvinyl alcohol, and a coloring dye in water using a coater (SATEC). Coating was performed using either or both of tryptophan in an amount of 0 g, 0.225 g, 0.45 g, or 5 g and allantoin in an amount of 0 g or 25 g per tonne of seeds.
Culture soil was filled into 12-cm vinyl pots, and the coated soybean seeds were seeded at 4 grains/pot. After germination, a differently grown strain was thinned to retain 3 strains in a pot. Cultivation was performed in a glass greenhouse, and inspection was performed 3 weeks after seeding. The test was repeated 6 times, and the average was determined.
as §1

[5] = tested on: soybean; assay: Cultivation of soybean from coated seeds under salt stress conditions; conditions: salt stress (NaCl 1.0 g/L soil), 3 weeks after seeding, seed coating Trp 0.045-5 g and/or allantoin 50 g per tonne of seeds
Experimental: Soybean seeds (100 g; the variety: Fukuyutaka) were coated with 800 μL of a coating solution comprising tryptophan, allantoin, polyvinyl alcohol, and a coloring dye in water using a coater (SATEC). Coating was performed using either or both of tryptophan in an amount of 0 g, 0.045 g, 0.225 g, 0.45 g, or 5 g and allantoin in an amount of 0 g or 50 g per tonne of seeds.
Culture soil comprising sodium chloride at 1.0 g/L of the soil was filled into 7.5-cm pots, and the coated soybean seeds were seeded at 1 grain/pot. Cultivation was performed in a glass greenhouse, and inspection was performed 3 weeks after seeding. The dry weight of the underground part was measured. The test was repeated 9 times, and the average was determined.

[6] = tested on: Zea mays; assay: Field test of Zea mays (ear yield); conditions: field cultivation, Belgium; seed coating 0.25 g tryptophan and/or 1000 g allantoin per tonne of seeds
Experimental: In the same manner as in Example 1, Zea mays seeds coated with 0.25 g of tryptophan per tonne of seeds, Zea mays seeds coated with 1000 g of allantoin per tonne of seeds, and Zea mays seeds coated with 0.25 g of tryptophan and 1000 g of allantoin per tonne of seeds were prepared. As a control group, seeds without coating were prepared.
• Location: the Wilderen MAR field, the Kingdom of Belgium • Variety: LIKEiT • Date of seeding: Apr. 27, 2020 • Date of harvesting: Oct. 12, 2020
Cultivation was performed in accordance with the conventional fertilization management technique and pest management technique, and the yield was inspected. • Inspection of yield: 120 strains/group; the number of repetitions: 4

Row | SMILES | rate of change in the fresh weight of the aboveground part relative to control group [1] [%] | rate of change in the fresh weight of the aboveground part relative to control group [2] [%] | rate of change in the density relative to control group [3] [%] | rate of change in the fresh weight of the aboveground part relative to control group [4] [%] | rate of change in the dry weight of the underground part relative to control group [5] [%] | ear yield relative to the control group (100%) [6] [%]
1 | NC(=O)NC1NC(=O)NC1=O (stereo not shown) [allantoin, 5-ureidohydantoin] | 5 | 1 | 3 | 4 | 2 | 100.4
2 | N[C@@H](Cc1c[nH]c2ccccc12)C(=O)O [tryptophan, L-tryptophan] |  |  |  |  |  | 100.4
